In patent US20260184707A1, “PHARMACEUTICAL COMPOUNDS FOR THE TREATMENT OF COMPLEMENT MEDIATED DISORDERS” (ALEXION PHARMACEUTICALS, INC., priority 2022, published 2026) one finds IC50 data, which are given here for 18 compounds.

This experiment concerns the target T1, Human complement C1s enzyme (Homo sapiens, UniProt P09871).
T1 construct: purified from human serum, Complement Technology, Inc; purchased Complement Technology, Inc; host or cells: human serum (plasma-derived native protein)
T1 sequence (P09871 438-688 limits assumed): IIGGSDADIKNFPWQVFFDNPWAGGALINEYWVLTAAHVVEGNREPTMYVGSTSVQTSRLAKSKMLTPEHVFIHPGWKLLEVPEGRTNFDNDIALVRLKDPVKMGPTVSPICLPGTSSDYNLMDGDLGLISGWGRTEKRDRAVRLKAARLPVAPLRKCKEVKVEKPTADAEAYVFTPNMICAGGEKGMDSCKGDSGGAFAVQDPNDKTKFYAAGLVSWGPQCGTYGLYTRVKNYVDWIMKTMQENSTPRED
T1 sequence (P09871 16-437 partner limits assumed): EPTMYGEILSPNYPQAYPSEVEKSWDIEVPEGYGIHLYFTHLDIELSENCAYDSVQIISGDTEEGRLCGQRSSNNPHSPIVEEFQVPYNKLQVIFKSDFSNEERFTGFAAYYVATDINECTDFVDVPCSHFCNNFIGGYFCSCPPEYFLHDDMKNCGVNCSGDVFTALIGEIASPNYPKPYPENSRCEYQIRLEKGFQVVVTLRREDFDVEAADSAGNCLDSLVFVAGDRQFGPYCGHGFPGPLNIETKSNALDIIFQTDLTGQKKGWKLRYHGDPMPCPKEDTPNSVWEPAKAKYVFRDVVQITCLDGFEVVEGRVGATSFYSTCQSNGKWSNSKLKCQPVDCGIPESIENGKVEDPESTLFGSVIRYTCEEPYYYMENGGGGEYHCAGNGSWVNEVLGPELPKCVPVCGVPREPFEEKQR
In words: Human C1s enzyme assay. In kind it is biochemical. As to conditions: human complement C1s enzyme 1.16 nM, substrate Z-L-Lys-SBzl, A405; read-out: IC50 (Stars). Summed up:
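Thioesterase activity followed colorimetrically (DTNB, A405, 30-s reads) using 100 μM Z-L-Lys-SBzl substrate. Enzyme, human serum-derived C1s at 1.16 nM final, was incubated with test compound for 5 min, room temperature, pH 7.5 Tris buffer with 1 M NaCl. Rate-versus-concentration data fitted by nonlinear regression for IC50.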

As for `Nc1cnc(-c2ccccc2)n(CC(=O)NCc2cc3cnccc3[nH]2)c1=O` [Compound 317, N-((1H-pyrrolo[3,2-c]pyridin-2-yl)methyl)-2-(5-amino-6-oxo-2-phenylpyrimidin-1(6H)-yl)-acetamide], the IC50 is below 100 nM.

In the case of `CO[C@@H]1CO[C@H]2[C@@H]1OC[C@H]2Oc1ccc(CCCNc2cnc(-c3ccccc3)n(CC(=O)NCc3cc4cnccc4[nH]3)c2=O)cc1` [Compound 192, N-((1H-pyrrolo[3,2-c]pyridine-2-yl)methyl)-2-(5-((3-(4-(((3R,3aR,6R,6aR)-6-methoxyhexahydrofuro[3,2-b]furan-3-yl)oxy)phenyl)propyl)amino)-6-oxo-2-phenylpyrimidin-1(6H)-yl)acetamide], the IC50 was below 100 nM.

Consider `C[C@H](Nc1ncc(-c2ccccc2F)n(CC(=O)NCc2cc3cnccc3[nH]2)c1=O)c1ccc2oc3ccccc3c2c1` [Compound 314, (S)—N-((1H-pyrrolo[3,2-c]pyridine-2-yl)methyl)-2-(3-((1-(dibenzo[b,d]furan-2-yl)ethyl)amino)-6-(2-fluorophenyl)-2-oxopyrazin-1(2H)-yl)acetamide], for which the IC50 is below 100 nM.

Regarding `C[C@H](NC(=O)Cn1c(-c2ccccc2)ncc(N[C@H](C)c2ccc3oc4ccccc4c3c2)c1=O)c1cc2cnccc2[nH]1` [Compound 239, N-((S)-1-(1H-pyrrolo[3,2-c]pyridin-2-yl)ethyl)-2-(5-(((R)-1-(dibenzo[b,d]furan-2-yl)-ethyl)amino)-6-oxo-2-phenyl-pyrimidin-1(6H)-yl)acetamide], the half-maximal inhibitory concentration (IC50) is above 1000 nM.

Take `C[C@@H](Nc1cn(C)c(=O)n(CC(=O)NCc2cc3cnccc3[nH]2)c1=O)c1ccc2oc3ccccc3c2c1` [Compound 366, (R)—N-((1H-pyrrolo[3,2-c]pyridine-2-yl)methyl)-2-(5-((1-(dibenzo[b,d]furan-2-yl)ethyl)amino)-3-methyl-2,6-dioxo-3,6-dihydropyrimidin-1(2H)-yl)acetamide]: the IC50 is above 1000 nM.

Turning to `COC[C@H]1CN(c2ncc(N[C@H](C)c3ccc4oc5ccccc5c4c3)c(=O)n2CC(=O)NCc2cc3cnccc3[nH]2)CCO1` [Compound 469, N-((1H-pyrrolo[3,2-c]pyridin-2-yl)methyl)-2-(5-(((R)-1-(dibenzo[b,d]furan-2-yl)ethyl)-amino)-2-((R)-2-(methoxy-methyl)morpholino)-6-oxo-pyrimidin-1(6H)-yl)acetamide], the 50% inhibitory concentration (IC50) lay in the range of 100 to 1000 nM.

With `O=C(Cn1c(-c2ccccc2)ncc(NC(=O)c2ccc(-c3ccc(OC(F)(F)F)cc3)cc2)c1=O)NCc1cc2cnccc2[nH]1` [Compound 164, N-(1-(2-(((1H-pyrrolo[3,2-c]pyridin-2-yl)methyl)amino)-2-oxoethyl)-6-oxo-2-phenyl-1,6-dihydropyrimidin-5-yl)-4′-(trifluoromethoxy)-[1,1′-biphenyl]-4-carboxamide], the IC50 was below 100 nM.

Consider `CO[C@@H]1CO[C@H]2[C@@H]1OC[C@H]2Oc1ccc(-c2ncc(NCCCc3ccccc3)c(=O)n2CC(=O)NCc2cc3cnccc3[nH]2)cc1` [Compound 189, N-((1H-pyrrolo[3,2-c]pyridine-2-yl)methyl)-2-(2-(4-(((3R,3aR,6R,6aR)-6-methoxyhexahydrofuro[3,2-b]furan-3-yl)oxy)phenyl)-6-oxo-5-((3-phenylpropyl)amino)pyrimidin-1(6H)-yl)acetamide], for which the IC50 was below 100 nM.

In the case of `C[C@@H](Nc1ncc(-c2ccccc2)n(CC(=O)NCc2cc3cnccc3[nH]2)c1=O)c1ccc2oc3ccccc3c2c1` [Compound 348, (R)-N-((1H-pyrrolo[3,2-c]pyridin-2-yl)methyl)-2-(3-((1-(dibenzo[b,d]furan-2-yl)ethyl)-amino)-2-oxo-6-phenylpyr-azin-1(2H)-yl)acetamide], the IC50 is below 100 nM.

Take `C[C@@H]1CN(c2ncc(N[C@H](C)c3ccc4oc5ccccc5c4c3)c(=O)n2CC(=O)NCc2cc3cnccc3[nH]2)C[C@H](C)O1` [Compound 305, N-((1H-pyrrolo[3,2-c]pyridin-2-yl)methyl)-2-(5-(((R)-1-(dibenzo[b,d]furan-2-yl)ethyl)-amino)-2-((2S,6R)-2,6-dimeth-ylmorpholino)-6-oxopyrimidin-1(6H)-yl)acetamide]: the concentration for half-maximal inhibition (IC50) is 100 to 1000 nM.

As to `C[C@@H](Nc1cnc(-c2cscn2)n(CC(=O)NCc2cc3cnccc3[nH]2)c1=O)c1ccc(-c2ccccc2F)cc1` [Compound 446, (R)-N-((1H-pyrrolo[3,2-c]pyridin-2-yl)methyl)-2-(5-((1-(2′-fluoro-[1,1′-biphenyl]-4-yl)ethyl)amino)-6-oxo-2-(thiazol-4-yl)pyrimidin-1(6H)-yl)acetamide], the concentration for half-maximal inhibition (IC50) was below 100 nM.

On to `O=C(Cn1c(-c2ccccc2)ncc(NC(=O)c2ccc(-c3ccccc3)cc2F)c1=O)NCc1cc2cnccc2[nH]1` [Compound 166, N-(1-(2-(((1H-pyrrolo[3,2-c]pyridine-2-yl)methyl)amino)-2-oxoethyl)-6-oxo-2-phenyl-1,6-dihydropyrimidin-5-yl)-3-fluoro-[1,1′-biphenyl]-4-carboxamide], for which the IC50 was below 100 nM.

As to `O=C(Cn1c(-c2ccccc2)ncc(NC(=O)c2ncc(-c3ccccc3)s2)c1=O)NCc1cc2cnccc2[nH]1` [Compound 170, N-(1-(2-(((1H-pyrrolo[3,2-c]pyridin-2-yl)methyl)amino)-2-oxoethyl)-6-oxo-2-phenyl-1,6-dihydropyrimidin-5-yl)-5-phen-ylthiazole-2-carboxamide], the IC50 was below 100 nM.

For `O=C(Cn1c(-c2cccs2)ncc(NCc2ccc3oc4ccccc4c3c2)c1=O)NCc1cc2cnccc2[nH]1` [Compound 251, N-((1H-pyrrolo[3,2-c]pyridin-2-yl)methyl)-2-(5-((dibenzo [b,d]furan-2-ylmethyl)amino)-6-oxo-2-(thiophen-2-yl)pyrimi-din-1(6H)-yl)acetamide], the concentration for half-maximal inhibition (IC50) was below 100 nM.

In the case of `CC1(c2ccc(CCCNc3cnc(-c4ccccc4)n(CC(=O)NCc4cc5cnccc5[nH]4)c3=O)cc2)COC1` [Compound 180, N-((1H-pyrrolo[3,2-c]pyridine-2-yl)methyl)-2-(5-((3-(4-(3-methyloxetan-3-yl)phenyl)propyl)amino)-6-oxo-2-phenylpyrimidin-1(6H)-yl)acetamide], the IC50 was below 100 nM.

Turning to `O=C(Cn1c(-c2cccnc2)ncc(NCc2ccc3oc4ccccc4c3c2)c1=O)NCc1cc2cnccc2[nH]1` [Compound 242, N-((1H-pyrrolo[3,2-c]pyridin-2-yl)methyl)-2-(5-((dibenzo [b,d]furan-2-ylmethyl)amino)-6-oxo-2-(pyridin-3-yl)pyrimi-din-1(6H)-yl)acetamide], the 50% inhibitory concentration (IC50) is below 100 nM.

`COc1ccc(CCCNc2cnc(-c3ccccc3)n(CC(=O)NCc3cc4cnccc4[nH]3)c2=O)cc1` [Compound 45, N-((1H-pyrrolo[3,2-c]pyridin-2-yl)methyl)-2-(5-((3-(4-methoxyphenyl)propyl)amino)-6-oxo-2-phenylpyrimidin-1(6H)-yl)acetamide]: the IC50 is below 100 nM.

`C[C@@H](Nc1cnc(-c2ccccc2)n(CC(=O)NCc2cc3cnccc3[nH]2)c1=O)c1ccc(-c2ccccc2F)cc1` [Compound 307, (R)-N-((1H-pyrrolo[3,2-c]pyridin-2-yl)methyl)-2-(5-((1-(2′-fluoro-[1,1′-biphenyl]-4-yl)ethyl)amino)-6-oxo-2-phen-ylpyrimidin-1(6H)-yl)acet-amide]: the IC50 is below 100 nM.
